Experimental data: patent US12281323B2, “Treatment for restoring ureagenesis in carbamoyl phosphate synthetase 1 deficiency” (The Regents of the University of California, priority 2019, dated 2025)

Test system: conditional CPS1 knock out mouse model
Test: sAAV efficacy in vivo in conditional CPS1 knock out mouse model (floxed Cps1 removed by AAV-Cre)
Settings: sAAV-treated mice additionally treated with n-carglumic acid
Excerpt: To illustrate the ability of sAAVs to treat CPS1 deficiency, sAAVs encoding human codon optimized CPS1 (hcoCPS1) driven by the constitutive CAG promoter were generated and tested in a conditional CPS1 knock out mouse model (see, e.g. Khoja et al., Molecular Genetics and Metabolism. 2018 Aug. 1; 124(4):243-253). […] Currently, there is no effective therapy for human patients with CPS1 disorders. Our data from this gene therapy model in mice having knocked out endogenous CPS1 expression provides evidence that this treatment can address this unmet need for these patients.
In illustrative embodiments of the invention, to test sAAV efficacy in vivo, a conditional CPS1 knock out mouse model was used. These mice contain biallelic floxed Cps1 which is removed by treatment with an AAV expressing Cre recombinase (AAV-Cre). […] Treatment with the small molecule n-carglumic acid, an analog of NAG, the allosteric activator of CPS1, further extended lifespan (all mice >120 days; p<0.01) and maintained near normal plasma ammonia (baseline: 138.87 μM±86.5; post-treatment: 217.8 μM±69.9; p=0.15).

For NC(=O)N[C@@H](CCC(=O)O)C(=O)O [n-carglumic acid], the lifespan (all mice, p<0.01) was > 120 days and the plasma ammonia post-treatment (±69.9, baseline 138.87 μM±86.5, p=0.15) was 217.8 µM.
